Results taken from publication PMC10892409, “Exploring Ocimum basilicum’s Secondary Metabolites: Inhibition and Molecular Docking against Rhynchophorus ferrugineus for Optimal Action” (Plants, 2024).
In brackets after ≈: the same amount, converted by molar mass. Several values for one entry are separate records, joined by “and”; a condition that tells them apart may be missing. Equal values may be shown once.

What was measured:
[1] = system: R. ferrugineus adults; test: Antifeedant/insecticidal test on adults with treated sugarcane stem (probit LC50); assay type: in vivo, Rhynchophorus ferrugineus; details: Rhynchophorus ferrugineus, 24 h, after 1 day of treatment, 95% confidence limits in brackets, read-out: LC50
Experimental: (§1) Over the course of 40 days, an O. basilicum cell suspension was cultivated in this investigation, and then the extract was obtained. […] Long segments of sugarcane stem were employed in the insect breeding lab at King Faisal University’s Research and Training Center to raise adult R. ferrugineus larvae. For this experiment, we used a topical application technique with larvae stored at 4 °C for five minutes to test the extract’s activity. Using a hand-operated micro-applicator (Burkard Manufacturing Co., Ltd., Hertfordshire, UK, collected using a […] micro-syringe), extracts at escalating ratios (10 µL) were injected into the dorsal surface of the larvae (Ito Corp.; MS-N50, Shizuoka, Japan). Five larvae per box in a series of three replicates were fed on sugarcane stem pieces measuring 10 cm in length. The LD50 was calculated by measuring the percentage of dead larvae at 24, 48, 72, and 96 h following a topical application. The antifeedant impact was determined in adults by giving them 10 cm sugarcane stem segments cut in half longitudinally. Long strips of sugarcane stem (32 cm^2) were immersed in the previous serial extract and compound concentration (10 mL) for ten seconds before they were dried in ambient air using a plastic box. Each box included a new pair of larvae (a male and a female). Ten sets of each treatment were performed. Data on how well the subjects ate were evaluated at 24, 48, 72, and 96 h.
(§2) The tissue culture parameters were calculated quantitatively from three independent sets of samples, and the mean SD was used to describe the findings. Toxicity parameters were determined quantitatively using a 10-replicate sample, and means and standard deviations were used to present the data. The median dosage obtained from a dose–response regression was used to calculate the LC50 value. By analyzing the comparative growth rate vs. the crude extract logarithm using least squares regression, the range of LC50 was calculated with 95% confidence. A simple variance study was performed on the increased weight and enzymatic activity data (ANOVA). The distinction between the means was accomplished using the Student–Newman–Keuls (SNK) test. Additionally, SPSS version 25 was used to find p < 0.05 significant deviations from the mean.

[2] = system: fourth-instar larvae of R. ferrugineus; test: Topical application (contact) to fourth-instar larvae (probit LD50); assay type: in vivo, Rhynchophorus ferrugineus; details: after 1 day of treatment, 95% confidence limits in brackets
Experimental: as §1, §2

[3] = system: AChE; test: In vitro AChE inhibition, larval homogenate (Ellman); assay type: biochemical, Rhynchophorus ferrugineus; details: fourth-instar larvae preparation
Experimental: (§3) The R. ferrugineus were homogenized larvae in a buffer (sodium phosphate, 40 mM, and pH 7.4); then, sodium chloride (10 mM dissolved in 1% (w/v) triton X-100) was added. During centrifugation (Sigma 3–30 KS), the homogenate was chilled to 4 °C and spun at a speed of 5000 rpm (20 min). The supernatant was either immediately put into action for an enzymatic test or frozen and kept at […] for later use. Each test was repeated three times. The protein content was determined using the same protocol employed by Lowry with modification using protein extract (100 µL) combined with an alkaline copper solution and a Folin–Ciocalteu phenol reagent (2 mL and 200 µL, respectively). The intensity of the resulting blue hue was evaluated during 30 min of incubation at 25 °C. Using an ELISA plate reader and a BSA standard curve, we could calculate the protein concentration by analyzing the absorbance at 600 nm (Multiskan SkyHigh Microplate Spectrophotometer, Thermo Fisher Scientific, Waltham, MA, USA).
(§4) The enzyme AChE was assessed using a substrate of acetylthiocholine iodide and evaluated using 5,5′-dithiobis [2-nitrbenzoic acid] (DTNB), according to [94]. Each well contained a sodium phosphate buffer (140 µL) (pH: 8.0; 100 mM), DTNB (10 µL), extract (20 µL)/components at 1, 10, 50, 100, and 1000 µg/mL in DMSO and underwent 15 min of incubation at 25 °C. Acetylthiocholine (ATCh) was added to start the reaction (10 µL). The ATCh enzymatic hydrolysis produced a 5-thio-2-nitrobenzoate anion as a color (yellow) that was detected by measuring its wavelength, i.e., 412 nm, thereby allowing the researchers to track the rate of ATCh hydrolysis (15 min). Each response was performed three times on a microplate and examined using an ELISA plate reader to determine the 412 nm absorbance of the combination (Multiskan SkyHigh Microplate Spectrophotometer). The AChE-specific activity was measured as OD412/mg protein.h. based on observing the effect of raising the quantities of all of these compounds during the tests on the inhibition results, and the inhibitory concentration (IC50) was calculated. Then, a computer algorithm was used to determine the IC50 values (Version 9.01 of GraphPad Prism by Inc., 2020, San Diego, CA, USA).

[4] = system: ACPs; test: In vitro ACP inhibition, larval homogenate; assay type: biochemical, Rhynchophorus ferrugineus; details: fourth-instar larvae preparation
Experimental: as §3
(§5) Activities of ACPs and ALPs were evaluated using a modified version of the Asakura technique. The ACP test required incubating 100 μL of crude enzyme in a buffer of 650 μL of sodium acetate (pH: 5.0; 50 mM with ACPs) or 250 μL of Tris–HCl (at 50 mM; pH: 8.0 with ALPs) and p-nitrophenyl phosphate (5.5 mM). For 30 min; the various mixes were kept at 37 °C for incubation. Thereafter, 500 μL of NaOH (0.5 N) stopped the reaction. Using an ELISA plate reader, we determined the mixture’s 415 nm absorbance value (Multiskan SkyHigh Microplate Spectrophotometer). The ACP- and ALP-specific activity was estimated as OD 415/mg protein·h.

[5] = system: ALPs; test: In vitro ALP inhibition, larval homogenate; assay type: biochemical, Rhynchophorus ferrugineus; details: for IC50 ALPs in vitro: fourth-instar larvae preparation
Experimental: as §3, §5

[6] = system: AChE; test: In vivo AChE inhibition in treated fourth-instar larvae; set-up: species or system Rhynchophorus ferrugineus; details: fourth-instar larvae treated 24 h
Experimental: as §4
(§6) Each enzyme’s in vivo impact was measured after treating larvae with an extract or pure chemicals. An inhibitor-free test combination served as a negative control. We determined the absorbance of the enzymes throughout a spectrum of wavelengths using a rapid reader for ELISA plates (Multiskan SkyHigh Microplate Spectrophotometer). Extracts and pure chemicals were used to treat R. ferrugineus larvae at previous serial concentrations, and their AChE, ACP, ALP, and GABA-T activity was tested in vivo using the methods outlined above. Larvae spent a day on leaf disks treated with chemicals or extract.

[7] = system: ACPs; test: In vivo ACP inhibition in treated fourth-instar larvae; set-up: species or system Rhynchophorus ferrugineus; details: fourth-instar larvae treated 24 h
Experimental: as §5, §6

[8] = system: ALPs; test: In vivo ALP inhibition in treated fourth-instar larvae; set-up: species or system Rhynchophorus ferrugineus; details: fourth-instar larvae treated 24 h
Experimental: as §5, §6

[9] = listed as quercetin-3-O-rutinoside

O=C(O)C[C@H](C(=O)O)[C@@H](O)C(=O)O [Isocitric acid]
LC50 [1]: 1800 µg/mL (≈ 9340 µM)
LD50 [2]: 22.7 (21.4–23.8) µg/Larvae
LD50 ([2]; listed as isocitric acid): 22.7 µg/Larvae
IC50 AChE in vitro [3]: 197.3 µg/mL and 197 ± 1.76 µg/mL
IC50 ACPs in vitro [4]: 192.4 µg/mL (≈ 1000 µM)
IC50 ALP in vitro [5]: 195 µg/mL (≈ 1010 µM)
IC50 ALPs in vitro [5]: < 200 µg/mL
IC50 AChE in vivo [6]: 494 ± 1.76 µg/mL
IC50 AChE in vivo ([6]; listed as isocitric acid): 494.2 µg/mL
IC50 ACPs in vivo ([7]; listed as isocitric acid): 415.6 µg/mL
IC50 ALPs in vivo ([8]; listed as isocitric acid): 448.3 µg/mL

O=C(/C=C/c1ccc(O)c(O)c1)O[C@H](Cc1ccc(O)c(O)c1)C(=O)O [Rosmarinic acid]
LC50 [1]: 1430 µg/mL (≈ 3960 µM)
LD50 [2]: 11.8 (11.2–12.5) µg/Larvae
IC50 AChE in vitro [3]: 119.2 µg/mL and 119 ± 1.14 µg/mL
IC50 ACPs in vitro [4]: 139.7 µg/mL (≈ 388 µM)
IC50 ALP in vitro [5]: 150 µg/mL (≈ 415 µM)
IC50 ALPs in vitro [5]: < 200 µg/mL
IC50 AChE in vivo [6]: 235.1 µg/mL and 235 ± 1.14 µg/mL
IC50 ACPs in vivo [7]: < 330 µg/mL and 258.7 µg/mL
IC50 ALPs in vivo [8]: 256.7 µg/mL

Chicoric acid
LD50 [2]: 9.45 (9.07–10.45) µg/Larvae
LD50 ([2]; listed as chicoric acid): 9.45 µg/Larvae
IC50 AChE in vitro [3]: 108 ± 1.07 µg/mL
IC50 AChE in vitro ([3]; listed as chicoric acid): 107.5 µg/mL
IC50 ACPs in vitro ([4]; listed as chicoric acid): 101.7 µg/mL
IC50 ALPs in vitro ([5]; listed as chicoric acid): < 200 µg/mL
IC50 AChE in vivo [6]: 213 ± 1.07 µg/mL
IC50 AChE in vivo ([6]; listed as chicoric acid): 211.6 µg/mL
IC50 ACPs in vivo ([7]; listed as chicoric acid): < 330 µg/mL and 204.8 µg/mL
IC50 ALPs in vivo ([8]; listed as chicoric acid): 237.2 µg/mL

O=C(C=Cc1ccc(O)c(O)c1)OC(Cc1ccc(O)c(O)c1)C(=O)OC1OC(CO)C(O)C(O)C1O (centres unmarked) [Rosmarinic acid glucoside]
LC50 [1]: 1230 µg/mL (≈ 2350 µM)
LD50 ([2]; listed as Rosmarinyl glucoside): 17.2 (15.7–18.1) µg/Larvae
LD50 ([2]; listed as rosmarinyl glucoside): 17.2 µg/Larvae
IC50 AChE in vitro [3]: 89 ± 0.85 µg/mL
IC50 AChE in vitro ([3]; listed as rosmarinyl glucoside): 89.4 µg/mL
IC50 ACPs in vitro ([4]; listed as rosmarinyl glucoside): 123.6 µg/mL (≈ 237 µM)
IC50 ALP in vitro [5]: 120 µg/mL (≈ 229 µM)
IC50 ALPs in vitro ([5]; listed as rosmarinyl glucoside): < 200 µg/mL
IC50 AChE in vivo [6]: 313 ± 0.85 µg/mL
IC50 AChE in vivo ([6]; listed as rosmarinyl glucoside): 312.7 µg/mL
IC50 ACPs in vivo ([7]; listed as rosmarinyl glucoside): 318.8 µg/mL
IC50 ALPs in vivo ([8]; listed as rosmarinyl glucoside): 387.4 µg/mL

O=C(/C=C/c1ccc(O)c(O)c1)O/C=C\c1ccc(O)c(O)c1 [Nepetoidin B]
LC50 [1]: 1270 µg/mL (≈ 4050 µM)
LD50 [2]: 11.5 (10.9–12.1) µg/Larvae
LD50 ([2]; listed as nepetoidin B): 11.5 µg/Larvae
IC50 AChE in vitro [3]: 147 ± 1.38 µg/mL
IC50 AChE in vitro ([3]; listed as nepetoidin B): 147.2 µg/mL
IC50 ACPs in vitro ([4]; listed as nepetoidin B): 154.2 µg/mL (≈ 491 µM)
IC50 ALP in vitro [5]: 166 µg/mL (≈ 529 µM)
IC50 ALPs in vitro ([5]; listed as nepetoidin B): < 200 µg/mL
IC50 AChE in vivo [6]: 282 ± 1.38 µg/mL
IC50 AChE in vivo ([6]; listed as nepetoidin B): 281.7 µg/mL
IC50 ACPs in vivo ([7]; listed as nepetoidin B): < 330 µg/mL and 294.3 µg/mL
IC50 ALPs in vivo ([8]; listed as nepetoidin B): 307.9 µg/mL

O=C(/C=C/c1ccc(O)c(O)c1)O[C@@H](C(=O)O)[C@@H](O)C(=O)O [Caftaric acid]
LC50 [1]: 1490 µg/mL (≈ 4780 µM)
LD50 [2]: 18.79 (17.82–19.93) µg/Larvae
LD50 ([2]; listed as caftaric acid): 18.79 µg/Larvae
IC50 AChE in vitro [3]: 156 ± 1.49 µg/mL
IC50 AChE in vitro ([3]; listed as caftaric acid): 156.4 µg/mL
IC50 ALP in vitro [5]: 158 µg/mL (≈ 505 µM)
IC50 ALPs in vitro ([5]; listed as caftaric acid): < 200 µg/mL
IC50 AChE in vivo [6]: 429 ± 1.49 µg/mL
IC50 AChE in vivo ([6]; listed as caftaric acid): 429.2 µg/mL

C[C@@H]1O[C@@H](OC[C@H]2O[C@@H](Oc3c(-c4ccc(O)c(O)c4)oc4cc(O)cc(O)c4c3=O)[C@H](O)[C@@H](O)[C@@H]2O)[C@H](O)[C@H](O)[C@H]1O [Quercetin-3-O-rutinoside]
LC50 [1]: 1170 µg/mL (≈ 1910 µM)
LD50 [2]: 16.2 (15.3–17.2) µg/Larvae
LD50 [2, 9]: 16.2 µg/Larvae
IC50 AChE in vitro [3]: 98 ± 0.87 µg/mL
IC50 AChE in vitro [3, 9]: 98.4 µg/mL
IC50 ACPs in vitro [4, 9]: 104.8 µg/mL (≈ 172 µM)
IC50 ALP in vitro [5]: 102 µg/mL (≈ 168 µM)
IC50 ALPs in vitro [5, 9]: < 200 µg/mL
IC50 AChE in vivo [6]: 348 ± 0.87 µg/mL
IC50 AChE in vivo [6, 9]: 347.6 µg/mL
IC50 ACPs in vivo [7, 9]: 298.4 µg/mL
